# What was measured:
# POLCO = experiment: Pre-emergence herbicidal action against POLCO; type: in vivo, Polygonum convolvulus; conditions: Fallopia convolvulus, 504 h, dosage 80 g/ha
# How it was run: (§1)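 Visual rating at 3 weeks vs untreated pots; 0–100% scale, 100% = plants died. Treatment: aqueous WP/EC spray onto covering soil, 600–800 l/ha, 0.2% wetter, seeds in sandy loam.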
# LOLRI [1] = experiment: Post-emergence herbicidal action against LOLRI; type: in vivo, Lolium rigidum; conditions: Lolium rigidum, 504 h, dosage 20 g/ha
# Description: Seeds of monocotyledonous and dicotyledonous weed and crop plants are laid out in sandy loam soil in wood-fiber pots, covered with soil and cultivated in a greenhouse under good growth conditions. 2 to 3 weeks after sowing, the test plants are treated at the one-leaf stage. The compounds of the invention, formulated in the form of wettable powders (WP) or as emulsion concentrates (EC), are then sprayed onto the green parts of the plants in the form of an aqueous suspension or emulsion at a water application rate equivalent to 600 to 800 l/ha, with addition of 0.2% wetting agent. After the test plants have been left to stand in the greenhouse under optimal growth conditions for about 3 weeks, the action of the preparations is assessed visually in comparison to untreated controls (herbicidal action in percent (%): 100% activity=the plants have died, 0% activity=like control plants). […] The tables below illustrate, in an illustrative manner, the post-emergence herbicidal action of the compounds of the invention, the herbicidal activity being stated in percent.
# ABUTH [2] = experiment: Pre-emergence herbicidal action against ABUTH; type: in vivo, Abutilon theophrasti; conditions: Abutilon theophrasti, 504 h
# How it was run: as §1
# AMARE [3] = experiment: Post-emergence herbicidal action against AMARE; type: in vivo, Amaranthus retroflexus; conditions: Amaranthus retroflexus, 504 h, 20 g/ha, visual assessment about 3 weeks after treatment, 100% = plants have died, 0% = like control plants
# How it was run: (§2)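 Weeds in sandy loam soil received a post-emergence spray at the one-leaf stage. Compounds were applied as WP or EC in water, 600 to 800 l/ha, with 0.2% wetting agent. Activity in % was judged visually after roughly 3 weeks against untreated plants.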
# SETVI [4] = experiment: Pre-emergence herbicidal action against SETVI; type: in vivo, Setaria viridis; conditions: Setaria viridis, 504 h
# How it was run: as §1
# VIOTR [5] = experiment: Post-emergence herbicidal action against VIOTR; type: in vivo, Viola tricolor; conditions: Viola tricolor, 504 h
# How it was run: as §2
# STEME [6] = experiment: Post-emergence herbicidal action against STEME; type: in vivo, Stellaria media; conditions: Stellaria media, 504 h
# How it was run: as §2
# DIGSA [7] = experiment: Post-emergence herbicidal action against DIGSA; type: in vivo, Digitaria sanguinalis; conditions: Digitaria sanguinalis, 504 h
# How it was run: as §2
# STEME [8] = experiment: Pre-emergence herbicidal action against STEME; type: in vivo, Stellaria media; conditions: Stellaria media, 504 h
# How it was run: as §1
# LOLRI [9] = experiment: Pre-emergence herbicidal action against LOLRI; type: in vivo, Lolium rigidum; conditions: Lolium rigidum, 504 h
# How it was run: as §1
# ALOMY [10] = experiment: Pre-emergence herbicidal action against ALOMY; type: in vivo, Alopecurus myosuroides; conditions: Alopecurus myosuroides, 504 h, pre-emergence
# How it was run: as §1
# PHBPU = experiment: Pre-emergence herbicidal action against PHBPU; type: in vivo, Pharbitis purpurea; conditions: Ipomoea purpurea, 504 h, dosage 80 g/ha
# How it was run: as §1
# VIOTR [11] = experiment: Pre-emergence herbicidal action against VIOTR; type: in vivo, Viola tricolor; conditions: Viola tricolor, 504 h
# How it was run: as §1
# ECHCG [12] = experiment: Post-emergence herbicidal action against ECHCG; type: in vivo, Echinochloa crus-galli; conditions: Echinochloa crus-galli, 504 h, dosage 20 g/ha
# How it was run: as §2
# SETVI [13] = experiment: Post-emergence herbicidal action against SETVI; type: in vivo, Setaria viridis; conditions: Setaria viridis, 504 h
# How it was run: as §2
# HORMU [14] = experiment: Pre-emergence herbicidal action against HORMU; type: in vivo, Hordeum murinum; conditions: Hordeum murinum, 504 h; 80 g/ha, pre-emergence
# How it was run: as §1
# HORMU [15] = experiment: Post-emergence herbicidal action against HORMU; type: in vivo, Hordeum murinum; conditions: Hordeum murinum, 504 h, dosage 20 g/ha
# How it was run: as §2
# AVEFA [16] = experiment: Post-emergence herbicidal action against AVEFA; type: in vivo, Avena fatua; conditions: Avena fatua, 504 h, visual assessment about 3 weeks after treatment, 100% = plants have died, 0% = like control plants
# How it was run: as §2
# AVEFA [17] = experiment: Pre-emergence herbicidal action against AVEFA; type: in vivo, Avena fatua; conditions: Avena fatua, 504 h; 80 g/ha, pre-emergence
# How it was run: as §1
# ABUTH [18] = experiment: Post-emergence herbicidal action against ABUTH; type: in vivo, Abutilon theophrasti; conditions: Abutilon theophrasti, 504 h, dosage 20 g/ha, visual assessment about 3 weeks after treatment vs untreated controls
# How it was run: as §2
# AMARE [19] = experiment: Pre-emergence herbicidal action against AMARE; type: in vivo, Amaranthus retroflexus; conditions: Amaranthus retroflexus, 504 h, scored visually after 3 weeks vs untreated controls, 100% = plants have died, 0% = like control plants
# How it was run: as §1
# ECHCG [20] = experiment: Pre-emergence herbicidal action against ECHCG; type: in vivo, Echinochloa crus-galli; conditions: Echinochloa crus-galli, 504 h, 80 g/ha
# How it was run: as §1
# MATIN = experiment: Pre-emergence herbicidal action against MATIN; type: in vivo, Matricaria inodora; conditions: Tripleurospermum inodorum, 504 h
# How it was run: as §1
# ALOMY [21] = experiment: Post-emergence herbicidal action against ALOMY; type: in vivo, Alopecurus myosuroides; conditions: Alopecurus myosuroides, 504 h, dosage 20 g/ha, visual assessment about 3 weeks after treatment vs untreated controls
# How it was run: as §2
# DIGSA [22] = experiment: Pre-emergence herbicidal action against DIGSA; type: in vivo, Digitaria sanguinalis; conditions: Digitaria sanguinalis, 504 h
# How it was run: as §1
# [23] = 80 g/ha, scored visually after 3 weeks vs untreated controls (100% = plants have died, 0% = like control plants)
smiles,measurement,setting,value
Cn1nnnc1NC(=O)c1ccc(Cl)c(C(=O)NC2CC2)c1Cl [Example 1-173],pest or weed control at 80 g/ha,POLCO,80%
same,pest or weed control at 20 g/ha,LOLRI [1],90%
same,pest or weed control at 80 g/ha,ABUTH [2]; [23],100%
same,pest or weed control at 20 g/ha,"ABUTH [2]; dosage 20 g/ha, scored visually after 3 weeks vs untreated controls, 100% = plants have died, 0% = like control plants, read-out: Pre-emergence action against ABUTH (herbicidal activity in percent)",90%
same,pest or weed control at 20 g/ha,AMARE [3],100%
same,pest or weed control at 20 g/ha,SETVI [4]; dosage 20 g/ha,90%
same,pest or weed control at 80 g/ha,SETVI [4]; dosage 80 g/ha,100%
same,pest or weed control at 5 g/ha,VIOTR [5]; 5 g/ha,90%
same,pest or weed control at 20 g/ha,VIOTR [5]; 20 g/ha,90%
same,pest or weed control at 20 g/ha,STEME [6]; 20 g/ha,100%
same,pest or weed control at 5 g/ha,STEME [6]; dosage 5 g/ha,80%
same,pest or weed control at 5 g/ha,DIGSA [7]; 5 g/ha,90%
same,pest or weed control at 20 g/ha,DIGSA [7]; 20 g/ha,100%
same,pest or weed control at 20 g/ha,STEME [8]; dosage 20 g/ha,80%
same,pest or weed control at 80 g/ha,STEME [8]; dosage 80 g/ha,100%
same,pest or weed control at 20 g/ha,LOLRI [9]; 20 g/ha,80%
same,pest or weed control at 80 g/ha,LOLRI [9]; 80 g/ha,90%
same,pest or weed control at 80 g/ha,ALOMY [10]; [23],100%
same,pest or weed control at 20 g/ha,"ALOMY [10]; 20 g/ha, scored visually after 3 weeks, 100% = plants have died, 0% = like control plants",80%
same,pest or weed control at 80 g/ha,PHBPU,90%
same,pest or weed control at 20 g/ha,VIOTR [11]; dosage 20 g/ha,80%
same,pest or weed control at 80 g/ha,VIOTR [11]; dosage 80 g/ha,90%
same,pest or weed control at 20 g/ha,ECHCG [12],80%
same,pest or weed control at 5 g/ha,SETVI [13]; dosage 5 g/ha,90%
same,pest or weed control at 20 g/ha,SETVI [13]; dosage 20 g/ha,90%
same,pest or weed control at 80 g/ha,HORMU [14],90%
same,pest or weed control at 20 g/ha,HORMU [15],90%
same,pest or weed control at 5 g/ha,AVEFA [16]; 5 g/ha,90%
same,pest or weed control at 20 g/ha,AVEFA [16]; 20 g/ha,100%
same,pest or weed control at 80 g/ha,AVEFA [17],100%
same,pest or weed control at 20 g/ha,ABUTH [18],90%
same,pest or weed control at 20 g/ha,AMARE [19]; 20 g/ha,100%
same,pest or weed control at 80 g/ha,AMARE [19]; 80 g/ha,100%
same,pest or weed control at 80 g/ha,ECHCG [20],100%
same,pest or weed control at 20 g/ha,MATIN; dosage 20 g/ha,80%
same,pest or weed control at 80 g/ha,MATIN; dosage 80 g/ha,100%
same,pest or weed control at 20 g/ha,ALOMY [21],80%
same,pest or weed control at 20 g/ha,DIGSA [22]; dosage 20 g/ha,100%
same,pest or weed control at 80 g/ha,DIGSA [22]; dosage 80 g/ha,100%
